Test results reported in patent US20080262071A1 (priority 2004, published 2008).
Like-named read-outs stand apart in the source and are kept apart here.

Experiments:
[1] = Single blind pilot study of pindolol in PMS (COPE diary, CGI); type: in vivo, human
From the text: A single blind pilot study to evaluate the safety, efficacy and tolerability of pindolol in PMS was initiated at one study centre. The trial objectives were to: […] […] Twenty subjects were recruited who met the criteria for inclusion in the study. After screening subjects underwent a one month assessment period with prospective diaries (COPE, Calendar of Premenstrual Events). By calculating the subjects COPE scores in the follicular and luteal phases, a diagnosis of late luteal phase dysphoric disorder could be made. All subjects then entered the single-blind placebo treatment period and the subjects' outcome at the end of this cycle acted as their baseline assessment. Subjects were then treated with pindolol for the next three cycles and assessed using the COPE. During this three month period, subjects may have a sequential increase in dose at monthly intervals from 15 to 25 mg/day to optimize response. Provision was made for dose decreases in case of tolerability concerns. Subjects were aware that they would receive three months of active and one month of placebo but were unaware of when the placebo was administered. […] Secondary efficacy measures included; mean change from the end of the placebo period in luteal phase total COPE score; mean change from end of the placebo period in luteal phase physical COPE symptoms; mean change from the end of the luteal phase behavioral symptoms; mean change from end of the placebo period in follicular phase total COPE score; CGI improvement score at each of the three menstrual cycles.

[2] = man, after administration of the racemate; cited from earlier work
[3] = target: T1, 5HT1a receptors (Homo sapiens, UniProt P08908); conditions: cited from earlier work
T1 construct: host or cells: human subjects, in vivo PET
T1 sequence (P08908 1-422): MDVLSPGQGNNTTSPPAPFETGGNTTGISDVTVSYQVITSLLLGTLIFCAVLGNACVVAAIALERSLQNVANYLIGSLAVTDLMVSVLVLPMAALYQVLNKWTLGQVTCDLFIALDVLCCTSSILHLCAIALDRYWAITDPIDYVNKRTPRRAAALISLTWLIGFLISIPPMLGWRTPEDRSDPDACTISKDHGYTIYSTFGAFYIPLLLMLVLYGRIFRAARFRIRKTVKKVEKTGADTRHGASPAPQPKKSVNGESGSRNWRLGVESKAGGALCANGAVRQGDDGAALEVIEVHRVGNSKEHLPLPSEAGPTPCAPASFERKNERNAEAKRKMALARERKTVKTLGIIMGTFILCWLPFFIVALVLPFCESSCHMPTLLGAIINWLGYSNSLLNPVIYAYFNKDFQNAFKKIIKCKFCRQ

[4] = Blood pressure after single oral dose in healthy male volunteers; type: in vivo, human; conditions: healthy subjects
Description: Ten healthy male volunteers were tested on two separate occasions one week apart. On both occasions their blood pressure was measured at baseline.

[5] = meta-analysis of 14 double-blind trials; cited from earlier work
[6] = PMS subjects; cited from earlier work
[7] = luteal phase administration; cited from earlier work
[8] = Case treatment of a person with premenstrual dysphoric disorder, daily symptom diary; type: in vivo, human; conditions: month 2, 5 mg three times daily throughout luteal phase
From the text: Patient was a person with a long history of premenstrual dysphoric disorder.
Throughout each cycle, a daily diary was used to document symptoms.

[9] = PMS subjects, three cycles of pindolol

CC(C)NCC(O)COc1cccc2[nH]ccc12 (racemic) [pindolol]
tolerability ([1]; 15 to 25 mg/day): very well tolerated | withdrawals for unacceptable reductions in blood pressure ([1]; 15 to 25 mg/day): no withdrawals | CGI improvement [1, 9]: improvement in CGI | behavioral COPE scores [1, 9]: Particularly significant decreases | total COPE score ([1]; all patients treated with active drug, vs end of placebo period): decrease in the reduction of total COPE score | total COPE score ([1]; patients on doses of 15 mg and above): Significant decreases | differences between (−) and (+) pindolol in AUC, Cmax and t1/2 hrs [2]: minor differences | occupancy of 5HT1a receptors ([3]; 2.5 mg): did not generate any significant occupancy | occupancy of 5HT1a receptors ([3]; 5.0 mg): 19% | blood pressure ([4]; 10 mg orally): definite drop in blood pressure | diastolic blood pressure ([4]; 10 mg): definite drops in diastolic blood pressure

CC(=O)[C@H]1CC[C@H]2[C@@H]3CCC4=CC(=O)CC[C@]4(C)[C@H]3CC[C@]12C [Progesterone]
difference from placebo treatment in PMS [5]: did not find a clinically significant difference

CC(C)NCC(O)COc1ccc(CC(N)=O)cc1 (stereo not shown) [atenolol]
several other scales [6]: significant improvement was not found

CNCCC(Oc1ccc(C(F)(F)F)cc1)c1ccccc1 (stereo not shown) [fluoxetine]
efficacy in PMDD [7]: some efficacy

CN[C@H]1CC[C@@H](c2ccc(Cl)c(Cl)c2)c2ccccc21 [sertraline]
efficacy in PMDD [7]: some efficacy

S-(−)-pindolol [(−) pindolol]
mood and anxiety (daily diary) [8]: helped improve mood and reduce anxiety
